Laboratory results published in US11666562B2, “Ilaprazole for inhibiting the release of enveloped viruses from cells” (Northwestern University, priority 2020, dated 2023).
Entries after “also recorded” stand apart in the source; their conditions may differ.

Legend:
293T cells = assay: 293T cell toxicity; type: cell-based; conditions: at drug concentrations that inhibited release of HIV-1
Procedure: Drug potency and cell toxicity. EC50 calculations were determined by using AAT Bioquest's EC50 calculator. Cell toxicity at different concentrations of drugs as indicated was determine using the Cell Proliferation Reagent WST-1 (Roche Diagnostics) or cellular 96® Aqueous One Reagent viability reagent according to manufacturer's instructions. For 293T cells, the concentration of DMSO was 0.2% or less and assays were carried out with DMEM with 10% serum. Cell toxicity experiments were repeated twice.

MEK4 = target: T1, MEK4 (Homo sapiens, UniProt P45985); assay: FTS assay against unrelated protein MEK4; type: binding
T1 sequence (P45985 1-399): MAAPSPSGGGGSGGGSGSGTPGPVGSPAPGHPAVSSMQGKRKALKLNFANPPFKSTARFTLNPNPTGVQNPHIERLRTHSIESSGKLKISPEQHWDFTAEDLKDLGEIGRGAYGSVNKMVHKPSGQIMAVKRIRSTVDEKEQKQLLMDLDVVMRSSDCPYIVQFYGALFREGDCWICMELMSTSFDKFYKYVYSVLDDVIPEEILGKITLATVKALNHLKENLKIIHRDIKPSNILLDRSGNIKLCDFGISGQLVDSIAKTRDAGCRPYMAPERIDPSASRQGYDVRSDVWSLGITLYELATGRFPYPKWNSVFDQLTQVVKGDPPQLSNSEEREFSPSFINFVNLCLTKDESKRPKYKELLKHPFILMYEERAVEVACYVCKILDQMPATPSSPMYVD
Source text: FIG. 1. Thermal shift data of Tsg101 by lead compound Tenatoprazole (N16). […] (B) Thermal shift data of three human proteins, DHPH, ENO1, and MEK4 not related to Tsg101 by lead compound tenatoprazole. […] (C) The addition of DTT abolishes the Tm shift in the FTS assay, consistent with prazole compounds forming a disulfide bond to Tsg101. Rabe: Rabeprazole, Ila: Ilaprazole, Tenato: tenatoprazole, Panto: pantoprazole, ref: reference.
This specific binding is consistent with a previous NMR structure in which tenatoprazole forms a covalent disulfide bond to Cys73 in the UEV domain of the protein (5). This disulfide bond formation can be prevented by including the reducing agent DTT in the assay (FIG. 1C). The addition of DTT abolished the Tsg101-UEV Tm shift caused by the prazoles. […]
Fluorescence thermal shift (FTS) screening to identify small molecule binding to Tsg101-UEV. […] Discovery of small molecule binding to target protein utilizes the observation that ligand binding affects protein thermal stability, and therefore can be detected through a shift in the protein's thermal denaturation (melting) temperature (Tm). […] A fluorescence dye Sypro-Orange (Invitrogen) was used for assay detection. The dye is excited at 473 nm and has a fluorescence emission at 610 nm. […] Fluorescence was detected on a real-time PCR machine CFX384 (Bio-Rad Laboratories).

COc1ccnc(C[S+]([O-])c2nc3ccc(-n4cccc4)cc3[nH]2)c1C (centres unmarked) [Ilaprazole, 2-[(4-methoxy-3-methylpyridin-2-yl)methylsulfinyl]-6-pyrrol-1-yl-1H-benzimidazole]
Toxicity to 293T cells (293T cells): did not detect toxicity

COc1ccc2[nH]c([S+]([O-])Cc3ncc(C)c(OC)c3C)nc2n1 (centres unmarked) [Tenatoprazole]
Effect on thermal stability (Tm shift) of MEK4 (MEK4): negligible; also recorded: did not observe a Tm shift
